Assay results from patent US11753445B2, “Therapeutic peptides” (COHBAR, INC., priority 2016, dated 2023).
Ends that are not written are not given here. Peptide text beside a SMILES is read from it. * marks the point of attachment. Biotin = O=C1N[C@H]2[C@H](CS[C@H]2CCCCC(=O)*)N1

Assays:
3T3-L1 Adipocytes [1] = experiment: Free fatty acid levels in cultured mouse 3T3-L1 adipocytes, isoproterenol stimulated (Example 17); format: cell-based; conditions: isoproterenol 1 nM
Description: Mouse 3T3-L1 cells were seeded at a density between 1,000-20,000 cells per well on 96-well, 48-well, or 24-well plates in Pre-adipocyte Medium (Zen-Bio, Durham, N.C.) and grown to confluence at 37° C. in a humidified atmosphere of 5% CO2/95% air. Two days after confluence, cells were placed in Adipocyte Differentiation Medium (Zen-Bio, Durham, N.C.) and cultured for three additional days at 37° C. in a humidified atmosphere of 5% CO2/95% air. The culture media was then replaced with Adipocyte Maintenance Medium (Zen-Bio) and the cells were maintained for an additional 9-14 days at 37° C. in a humidified atmosphere of 5% CO2/95% air with partial medium replacement every other day. Following 12-17 days of differentiation, test peptides were added at a final concentration of 25-50 μM and incubated for 18-20 hours in Adipocyte Maintenance Medium at 37° C. in a humidified atmosphere of 5% CO2/95%. After the media incubation, media was removed and exchanged with Assay Buffer (Zen-Bio) containing isoproterenol (1 nM) (added to all samples except untreated controls) and the test peptides. Cells were incubated for a further 3 hours at 37° C. in a humidified atmosphere of 5% CO2/95%. Free fatty acid concentrations in the media were determined using a Free Fatty Acid Assay Kit (Zen-Bio) according to the manufacturer's instructions using a plate reader (540 nm).
Absorbance values were corrected for untreated background and expressed relative to isoproterenol treated cells. Treatment with isoproterenol (1 nM) alone was used as the free fatty acid level stimulatory control. The relative standard deviation of the isoproterenol control was <10%. […] Free fatty acid levels for insulin (100 nM) treatment were <5% of the isoproterenol control value.

Human Primary Adipocytes [2] = experiment: Free fatty acid levels in cultured human primary adipocytes, isoproterenol stimulated (Example 4); format: cell-based; conditions: test peptides 25 μM; isoproterenol 1 nM
Description: Human primary adipocytes were seeded at 5,000-100,000 cells per well on 96-well, 48-well, or 24-well plates in Pre-adipocyte Medium (Zen-Bio, Durham, N.C.) and grown to confluence at 37° C. in a humidified atmosphere of 5% CO2/95% air. Two days after confluence, cells were placed in Adipocyte Differentiation Medium (Zen-Bio, Durham, N.C.) and cultured for three additional days at 37° C. in a humidified atmosphere of 5% CO2/95% air. The culture media was then replaced with Adipocyte Maintenance Medium (Zen-Bio) and the cells were maintained for an additional 11-21 days at 37° C. in a humidified atmosphere of 5% CO2/95% air with partial medium replacement every other day. Following 14-24 days of differentiation, test peptides were added at a final concentration of 25 μM and incubated for 18-20 hours in Adipocyte Maintenance Medium at 37° C. in a humidified atmosphere of 5% CO2/95%. After 18-20 hours, the media was exchanged with fresh Adipocyte Maintenance Medium containing test peptides and incubated for 1 h at 37° C. in a humidified atmosphere of 5% CO2/95%. After 1 h media was exchanged with Assay Buffer (Zen-Bio) containing isoproterenol (1 nM) (added to all samples except untreated controls) and test peptides. Cells were incubated for a further 3 hours at 37° C. in a humidified atmosphere of 5% CO2/95%. Free fatty acid concentrations in the media were determined using a Free Fatty Acid Assay Kit (Zen-Bio) according to the manufacturer's instructions using a plate reader (540 nm). Absorbance values were corrected for untreated background and expressed relative to isoproterenol treated cells. Treatment with isoproterenol (1 nM) alone was used as the free fatty acid level stimulatory control. The relative standard deviation of the isoproterenol control was <14%. […] Free fatty acid levels for insulin (100 nM) treatment were <5% of the isoproterenol control value.

3T3-L1 Adipocytes [3] = experiment: Free fatty acid levels in cultured mouse 3T3-L1 adipocytes, isoproterenol stimulated (Example 2); format: cell-based; conditions: test peptides 25 μM; isoproterenol 1 nM
Summary of the method: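 3T3-L1 cells differentiated 12–17 days into adipocytes, then exposed to test peptides at 25 μM final for 18–20 h, then 1 h, then 3 h with isoproterenol (1 nM) at 37 °C. Free fatty acids in the medium measured colorimetrically at 540 nm, corrected for untreated background and expressed relative to isoproterenol-only cells.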

Human Primary Adipocytes [4] = experiment: Free fatty acid levels in cultured human primary adipocytes, forskolin stimulated (Example 5); format: cell-based; conditions: test peptides 25 μM; forskolin 1 μM
Description: Human primary adipocytes were seeded at 5,000-100,000 cells per well on 96-well, 48-well, or 24-well plate in Pre-adipocyte Medium (Zen-Bio, Durham, N.C.) and grown to confluence at 37° C. in a humidified atmosphere of 5% CO2/95% air. Two days after confluence, cells were placed in Adipocyte Differentiation Medium (Zen-Bio, Durham, N.C.) and cultured for three additional days at 37° C. in a humidified atmosphere of 5% CO2/95% air. The culture media was then replaced with Adipocyte Maintenance Medium (Zen-Bio) and the cells were maintained for an additional 11-21 days at 37° C. in a humidified atmosphere of 5% CO2/95% air with partial medium replacement every other day. Following 14-24 days of differentiation, test peptides were added at a final concentration of 25 μM and incubated for 18-20 hours in Adipocyte Maintenance Medium at 37° C. in a humidified atmosphere of 5% CO2/95%. After 18-20 hours, the media was exchanged with fresh Adipocyte Maintenance Medium containing test peptides and incubated for 1 h at 37° C. in a humidified atmosphere of 5% CO2/95%. After 1 h media was exchanged with Assay Buffer (Zen-Bio) containing forskolin (1 μM) (added to all samples except untreated controls) and test peptides. Cells were incubated for a further 3 hours at 37° C. in a humidified atmosphere of 5% CO2/95%. Free fatty acid concentrations in the media were determined using a Free Fatty Acid Assay Kit (Zen-Bio) according to the manufacturer's instructions using a plate reader (540 nm). Absorbance values were corrected for untreated background and expressed relative to forskolin treated cells. Treatment with forskolin (1 μM) alone was used as the free fatty acid level stimulatory control. The relative standard deviation of the forskolin control was <20%. […] Free fatty acid levels for insulin (100 nM) treatment were <8% of the forskolin control value.

[5] = Stability in mouse plasma, peptides 100 uM (Example 14); format: in vitro ADME; conditions: mouse plasma 37° C., peptide 100 uM
Description: Peptides (100 uM) were incubated in pooled mouse plasma at 37° C. and samples were removed and immediately analyzed for the concentration of intact peptide by LC/MS/MS over the course of 3 hours. The percent of peptide remaining in plasma at each time point was calculated relative to the initial peak area (Table 12).

Row | Compound | Free Fatty Acid Levels in 3T3-L1 Adipocytes Expressed as a Percent of Isoproterenol Control: Percent of Control Value (3T3-L1 Adipocytes [1]; Peptide Concentration 25 μM) [%] | Free Fatty Acid Levels in 3T3-L1 Adipocytes Expressed as a Percent of Isoproterenol Control: Percent of Control Value (3T3-L1 Adipocytes [1]; Peptide Concentration 50 μM) [%] | further results
1 | CC[C@H](C)[C@H](NC(=O)[C@H](Cc1ccc(O)cc1)NC(=O)[C@H](CC(N)=O)NC(=O)[C@H](CCSC)NC(=O)[C@H](CCC(=O)O)NC(=O)[C@H](CCC(N)=O)NC(=O)[C@H](Cc1c[nH]c2ccccc12)NC(=O)[C@@H](N)CCCNC(=N)N)C(=O)N[C@@H](Cc1ccccc1)C(=O)N[C@@H](Cc1ccc(O)cc1)C(=O)N1CCC[C@H]1C(=O)N[C@@H](CCCNC(=N)N)C(=O)N[C@@H](CCCNC(=N)N)C(=O)N[C@H](C)C(=O)O [compound 356] (HELM PEPTIDE1{R.W.Q.E.M.N.Y.I.F.Y.P.R.R.[dA]}$$$$V2.0) | 100.6 | – | –
2 | 359 (RWQEMNYIFYPRK-biotin; not fully specified (residue 13); printed as RWQEMNYIFYPRK-(Biotin)) [compound 359] | 34.8 | – | –
3 | 358 (Biotin-RWQEMNYIFYPR) [compound 358] | 60.8 | – | –
4 | 367 (Biotin-KRWQEMNYIFYPR) [compound 367] | – | 59.0 | –
5 | H-RWQEMNYIFYPR-NH2 [compound 354] | 92.3 | – | –
6 | 368 (PEG600-KNYIFYPR) [compound 368] | – | 70.0 | –
7 | H-WQEMNYIFY-OH [compound 365] | 85.6 | – | –
8 | H-YIFYPR-OH [compound 296] | 85.0 | – | –
9 | 372 (PEG600-KWQEMNYIFYP) [compound 372] | – | 168.0 | –
10 | CC[C@H](C)[C@H](NC(=O)[C@H](Cc1ccc(O)cc1)NC(=O)[C@H](CC(N)=O)NC(=O)[C@H](CCSC)NC(=O)[C@H](CCC(=O)O)NC(=O)[C@H](CCC(N)=O)NC(=O)[C@H](Cc1c[nH]c2ccccc12)NC(=O)[C@@H](N)CCCNC(=N)N)C(=O)N[C@@H](Cc1ccccc1)C(=O)N[C@@H](Cc1ccc(O)cc1)C(=O)N1CCC[C@H]1C(=O)N[C@@H](CCCNC(=N)N)C(=O)N[C@H](C)C(=O)O [compound 355] (HELM PEPTIDE1{R.W.Q.E.M.N.Y.I.F.Y.P.R.[dA]}$$$$V2.0) | 97.8 | – | –
11 | H-QEMNYIFYPR-OH [compound 366] | 82.0 | – | –
12 | Ac-YIFYPRKLR-NH2 [compound 58] | – | – | Free Fatty Acid Levels in Human Primary Adipocytes Expressed as a Percent of Isoproterenol Control: Percent of Control Value (Human Primary Adipocytes [2]): 164%; Free Fatty Acid Levels in 3T3-L1 Adipocytes Expressed as a Percent of Isoproterenol Control: Percent of Control Value (3T3-L1 Adipocytes [3]): 97.3%; Free Fatty Acid Levels in Human Primary Adipocytes Expressed as a Percent of Forskolin Control: Percent of Control Value (Human Primary Adipocytes [4]): 134%
13 | H-EMNYIFYP-OH [compound 362] | 92.5 | – | –
14 | H-RWQEM-OH [compound 351] | 100.1 | – | –
15 | 371 (PEG600-KRWQEMNYIFYP) [compound 371] | – | 118.0 | –
16 | H-IFYPR-OH [compound 360] | 94.6 | – | –
17 | 370 (PEG600-KWQEMNYIFYPR) [compound 370] | – | 129.0 | –
18 | 369 (PEG600-KEMNYIFYPR) [compound 369] | – | 87.5 | –
19 | H-QEMNYIFYP-OH [compound 363] | 131.5 | – | –
20 | H-MRWQEMGYIFYPRK(Ac)LR-OH [compound 69] | – | – | % Remaining at Each Time Point: 0 min ([5]; 0 min): 100%; remaining at 0.25 h, 100 uM ([5]; pooled mouse plasma, 15 min, read-out: % Remaining at Each Time Point: 15 min): 33.1%; remaining at 0.5 h, 100 uM ([5]; pooled mouse plasma, 30 min, read-out: % Remaining at Each Time Point: 30 min): 37.7%; remaining at 1 h, 100 uM ([5]; pooled mouse plasma, 60 min, read-out: % Remaining at Each Time Point: 60 min): 19.3%; remaining at 2 h, 100 uM ([5]; pooled mouse plasma, 120 min, read-out: % Remaining at Each Time Point: 120 min): 5.96%; remaining at 3 h, 100 uM ([5]; pooled mouse plasma, 180 min, read-out: % Remaining at Each Time Point: 180 min): 2.11%; Free Fatty Acid Levels in Human Primary Adipocytes Expressed as a Percent of Isoproterenol Control: Percent of Control Value (Human Primary Adipocytes [2]): 53.0%; Free Fatty Acid Levels in 3T3-L1 Adipocytes Expressed as a Percent of Isoproterenol Control: Percent of Control Value (3T3-L1 Adipocytes [3]): 61.3%; Free Fatty Acid Levels in Human Primary Adipocytes Expressed as a Percent of Forskolin Control: Percent of Control Value (Human Primary Adipocytes [4]): 119%
